Results from patent publication US12285434B2, “Therapeutic, preventive, or improvement agent for inflammatory disease and allergic disease” (The University of Tokyo, priority 2018, dated 2025).

How the values were obtained:
[1] = tested on: ear vessels of the mice; test: In vivo microscopy of ear vessels: FITC-dextran leakage and vascular diameter after histamine; set-up: species or system mouse
Procedure: To visualize the ear vessels of the mice, 70 kDa fluorescein isothiocyanate-dextran (10 mg/kg, manufactured by Sigma-Aldrich) was injected intravenously. Then, immediately after the administration of fluorescein isothiocyanate-dextran, 5,6-DiHETE (0.1 μg) was administered by instillation (percutaneously administered) as a pretreatment, and this group of mice was designated as a “5,6-DiHETE-administered group.” As a control group, a group of mice not administered with 5,6-DiHETE was designated as a “[…]-administered group”. Then, 15 minutes after the administration by instillation, histamine (400 μg) was administered by instillation (percutaneously administered) into the ventral surface of the ears for both the groups. Next, the mice were placed on the stage of a microscope confocal microscope (ECLIPSE Ti with C1 confocal system, manufactured by Nikon Corporation), and their body temperatures were maintained at 37° C. Dextran leakage and vascular diameter in the ears were monitored every minute in a period from 0 to 30 minutes after the administration of histamine using EZ-C1 Free Viewer (manufactured by Nikon Corporation), and the dextran leakage, artery diameter and vein diameter were quantified according to the description of Omori, K. et al., British Journal of Pharmacology, 171:4879-4889 (2014). It is known that smooth muscle contraction reduces the downstream blood flow and limits the vascular leakage, whereas smooth muscle relaxation (increase of vascular diameter) increases the blood flow, thereby leading to vascular leakage.

[2] = tested on: eNOS phosphorylation in HUVECs; test: Histamine-induced eNOS phosphorylation (Western blot); format: cell-based, human; conditions: pretreatment 0.1 μM, 15 minutes; histamine 10 μM, 5 minutes
Procedure: In Examples 4 to 6, human umbilical vein endothelial cells (hereinafter, sometimes referred to as “HUVECs”, manufactured by Lonza) were cultured in EGM-2 (manufactured by Lonza K.K.). These cells (passages 4 to 9) were used for experiments after 4-hour starvation in EBM-2 (manufactured by Lonza K.K.) containing 2% FBS.
To the plates on which the HUVECs were cultured, 5,6-DiHETE was added so as to attain 100 nM, and, 15 minutes after the addition, histamine was added so as to attain 10 μM. Then, in order to measure the protein masses of phosphorylated eNOS and eNOS, 5 minutes after the administration of histamine, the HUVECs were lysed with a modified lysis buffer (50 mM Tris-HCl (pH 7.4), 0.1 mM EDTA, 0.1 mM EGTA, 1% NP-40 substitute, 0.1% SDS, 0.1% deoxycholic acid, 50 mM NaF, 1 mM Na3VO4, and 10 mM β-glycerophosphate). […] Bands were detected and quantified using an Odyssey system (manufactured by LI-COR Biosciences) (FIG. 5B). Specifically, the bands of phosphorylated eNOS and eNOS were detected by scanning (800 nm) with the Odyssey system, and their intensity (band brightness) was quantified. The phosphorylation level of eNOS (ratio of phosphorylated eNOS to eNOS) was quantified and evaluated by a relative value obtained by dividing the band brightness of phosphorylated eNOS by the band brightness of eNOS. […]

[3] = tested on: DSS-induced colitis model mice; test: DSS-induced colitis: histologic score and colon edema (wet/dry weight ratio); format: in vivo, mouse (C57BL/6); conditions: Day 14; 50 μg/kg/day intraperitoneally on Days 9, 11 and 13
Description: C57BL/6 strain mice (male, 8 to 12 weeks old) were fed with water containing 2% dextran sodium sulfate (manufactured by MP Bio, hereinafter sometimes referred to as “DSS”) for 4 days to prepare colitis model mice (hereinafter, sometimes referred to as “colitis group” in Examples 7 to 10). The mice taken with DSS for 4 days were fed with normal water from Day 5. The DSS intake start date was defined as Day 1 of the test, and the day before the DSS intake start date was defined as Day 0 of the test. In addition, a group in which C57BL/6 strain mice (male, 8 to 12 weeks old) were fed with normal water was defined as a “healthy group” (the same applies to Examples 8 to 10).
To investigate the role of 5,6-DiHETE in the healing phase, the colitis model mice prepared in Example 7(1) were intraperitoneally injected with 5,6-DiHETE (manufactured by Cayman Chemical) (50 μg/kg/day) or HC-067047 (manufactured by Cayman Chemical) (1 mg/kg/day) on Days 9, 11 and 13 of the test (hereinafter, sometimes referred to as “5,6-DiHETE-administered group” and “HC-067047-administered group,” respectively, in Examples 9 and 10). HC-067047 is known to inhibit an increase of calcium ion concentration in endothelial cells.
Distal colon sections on Day 14 of the test in the healthy group, colitis group, 5,6-DiHETE-administered group and HC-067047-administered group were fixed in 4% paraformaldehyde for 24 hours, embedded in paraffin and cut into 2 μm-thick sections. Hematoxylin staining and eosin staining of these sections were performed according to a conventional method. The histologic score was then decided according to the description of Kruschewski M. et al., Digestive Diseases and Sciences, 46: 2336-2343 (2001) to evaluate the colitis severity.
The wet/dry weight ratio was used as an index of colon edema (Rachmilewitz D. et al., Gastroenterology, 97: 326-337(1989)). Specifically, the distal colon was collected, and the wet weight was measured. The distal colon was then dried at 60 C for 24 hours, and, thereafter, the dry weight was measured.

[4] = 0.1 μg pretreatment 15 minutes before histamine 400 μg

## CC/C=C\C/C=C\C/C=C\C/C=C\C[C@@H](O)[C@@H](O)CCCC(=O)O (racemic) [5,6-DiHETE, (±) 5,6-dihydroxy-8Z,11Z,14Z,17Z-eicosatetraenoic acid]
[1]; [4]
  histamine-induced increase of vein diameter: not inhibited
  mean fluorescence intensity of FITC-dextran extravasation vs histamine-administered group: significantly decreased
[1]; 0.1 μg pretreatment by instillation 15 minutes before histamine 400 μg
  artery diameter as compared with arteries nonstimulated with histamine: 132±15%
[2]
  histamine-induced phosphorylation of eNOS (serine 1177): significantly reduced histamine-induced phosphorylation of eNOS
[3]
  colon edema, wet/dry weight ratio: 5.2±0.2
  histologic score of colitis: 3.3±0.5
